Measurements from patent US12239720B2, “Compositions for use in lysis of selective cancer cells” (ONCOLYZE, INC., priority 2018, dated 2025).

System: cancer cells
Assay: Tumor cell necrosis of cancer cells versus normal cells (general statement)
Type: cell-based
Details: cancer cells vs normal cells; statement in the description, no data shown
Description: PNC-27 or PNC-28 is incubated with 6×10^6 cancer cells, for example, Mia-PaCa-2 cells, for 5 days at concentrations ranging from 0.001-750 μM. At different timepoints following treatment the cells are assessed for signs of necrosis, for example, membrane blebbing and disruption and formation of cell clumps coalescing into aggregates of cellular debris. Percent cell death is determined by measuring trypan blue dye uptake. Cancer cells are also treated with the negative control peptide PNC-29 and, separately, a peptide having only the p53 derived portion of PNC-27 or PNC-28 that cannot traverse the cell membrane due to the lack of the MRP peptide, administered at the same concentration as the test peptide. The effect of these control peptides on cellular growth, morphology and viability is determined.
As an additional control, PNC-27 or PNC-28 is combined with untransformed BMRPA1 acinar cells and with the untransformed breast epithelial cell line, MCF-10-2A at a concentration ranging from 0.001-750 μM to determine if the peptide is lethal to normal cell growth.

Row | Sequence | tumor cell necrosis
1 | ETFSDLWKLLKKWKMRRNQFWVKVQRG [PNC-28, p53 aa17-26-MRP] | induce tumor cell necrosis of cancer cells, but not normal cells
2 | PPLSQETFSDLWKLLKKWKMRRNQFWVKVQRG [PNC-27] | induce tumor cell necrosis of cancer cells, but not normal cells
